Experimental findings from patent US20250207124A1, “COMPOSITIONS AND METHODS FOR EXPRESSING SYNTHETIC GENETIC ELEMENTS ACROSS DIVERSE MICROORGANISMS” (priority 2022, published 2025) are described below.

What is called pIC50 is the negative decadic logarithm of the IC50, by convention in mol/L.

The subject of the assay is E. coli in vitro translation reaction. Kind of assay: PURExpress in vitro transcription/translation of a GFP reporter. The settings on record: read-out: half-maximal inhibition (IC50) of translation of a GFP reporter; PURExpress (NEB) protein synthesis system; DNA encoding eGFP; endpoint fluorescence after 4 hours.

pIC50: −log10 of the molar value.

Protocol: The PureExpress kit (NEB) was used in accordance with manufacture's protocol to assay for the in-vitro production of GFP. For each sample a 25 uL reaction was performed containing 100 ng DNA or 500 ng RNA template encoding GFP (transcription in this kit is via T7 RNA Polymerase), plus indicated amounts of purified compound dissolved in H2O. Reactions were loaded into a white 384 well plate and production of fluorescent GFP protein was monitored with a Synergy Ht Plate Reader (Bio-tek). Fluorescence reached an endpoint at 4 hours. To produce DNA template, a PCR product of the pT7-GFP gene was amplified (Kapa HiFi Polymerase) and purified by gel electrophoresis followed by gel purification (Qiagen). To produce RNA template, the DNA PCR product was transcribed with the HiScribe T7 High Yield RNA Synthesis kit (NEB), treated with DNasel, and purified by the Monarch RNA Purification Kit (NEB). RNA was quantified by Qubit.
To quantify IC50 values for translation inhibition activity (FIG. 14A), raw fluorescence values were linearly converted to percent activity. […] Graphpad Prism was used to plot a hyperbolic non-linear regression.

In the case of `CC[C@H]1OC(=O)[C@H](C)[C@@H](O[C@H]2C[C@@](C)(OC)[C@@H](O)[C@H](C)O2)[C@H](C)[C@@H](O[C@@H]2O[C@H](C)C[C@H](N(C)C)[C@H]2O)[C@](C)(O)C[C@@H](C)C(=O)[C@H](C)[C@@H](O)[C@]1(C)O` [erythromycin], the negative-log IC50 (pIC50) is 5.70.
